Earlier results, collected in patent US20260055117A1, “SUBSTITUTED PYRIDONE GPR84 ANTAGONISTS AND USES THEREOF” (Liminal BioSciences Limited, priority 2022, published 2026).

Test system: dextran sodium sulfate-induced chronic inflammatory bowel disease
Details: mouse; once-daily doses of 3 and 10 mg/kg; cited from earlier work

SMILES: O=c1nc(OC[C@@H]2COCCO2)cc2n1CCc1cc(C#CC3CC3)ccc1-2 [GLPG1205]
- disease activity index score: reduced
- neutrophil infiltration: reduced
